# According to patent publication US20250090875A9, “IMMUNOSTIMULATORY COMPOUNDS AND CONJUGATES” (Seagen Inc., priority 2021, published 2025):
# Experiments:
# [1] = system: MC38 tumors; test: MC38 colon tumor model in C57BL/6 mice; format: in vivo, mouse; settings: ADC, carboxylic acid vs methyl ester payload, FIG. 12
# Method: The activity of several conjugated TLR7/8 molecules in both methyl ester and carboxylic acid forms were also assessed in another colon tumor model, MC38. Results of this analysis are summarized in FIG. 12, which the top panel summarizing tumor volume and the bottom panel providing percent survival across 9 treatment groups. […] However, the increase in anti-tumor activity of the carboxylic acid version of the ADC was much more pronounced in this model for the S18a (methyl ester) or S18b (carboxylic acid) TLR7/8 agonist.
# To assess if the small molecule and conjugated agonist are specific for the toll like 7 and/or 8 receptors, various small molecules and ADCs were tested on TLR7 receptor knockout animals. As TLR8 is normally nonfunctional in mice, in TLR7−/− mice there is a total loss of ability to respond to compounds that work through these receptors. To assess whether compounds are TLR7/8 specific, MC38 tumors were implanted into either wild type C57B1/6 mice or cognate TLR7−/− mice. When tumors reached ˜50 mm3 mice animals were treated q7dx3 with vehicle (PBS), 1 mg/kg of the free small molecule S18a, the isotype/non-targeted ADC with cmpd 9 or with an immune cell targeted version of the cmpd 9 IDC.
# [2] = system: CT26 tumors; format: in vivo
# Excerpt: This example covers in vivo assessments of anti-tumor activity of ADCs with TLR7/8 agonists. An in vivo syngeneic system was used to assess the ability of the ADCs having TLR ⅞ agonists as the payload to induce immune responses and drive an anti-tumor immune response using a subcutaneous, heterotopic mouse colon carcinoma model (a CT26 system). Female Balb/c mice were implanted with 1×10^5 CT26 cells sub-cutaneously in the flank on day 0. When mean tumor size of 100 mm^3 (measured using the formula: Volume (mm^3)=0.5*Length*Width^2 where length is the longer dimension) was reached, the mice were randomized into treatment groups of 6 mice per group. Animals were then treated intraperitoneally with the indicated treatment every 7 days, for 3 doses total. Stock concentrations of the ADCs were diluted to the appropriate concentration and injected into animals in 100 μL volumes. Tumor length and width and mouse weights were measured throughout the study and tumor volume was calculated using the formula above. Animals were followed until tumor volume reached 1000 mm^3, when animals were then euthanized.
# [3] = system: human immune cells; test: Cytokine induction in human immune cells by TLR7/8 agonist-antibody conjugates (Luminex); format: cell-based; settings: ADC with immune-targeting antibody, FIGS. 6, 7, 8
# Method: Cells were stimulated with the various TLR7/8 agonist-antibody conjugates at different concentrations, and resulting supernatants were harvested and analyzed using a multiplex analyte kit (Luminex).
# Immune cells were treated with 5 μg/mL of an immune-targeting antibody, TLR agonist compounds, and antibody conjugated with different TLR agonist compounds (to thereby form ADCs with average drug:antibody ratios of about 8). FIG. 6 summarizes MIP1β (left panel) and TNFα (right panel) responses generated by untreated immune cells, a TLR agonist coupled to a non-targeting antibody (‘Non-targeted’), and TLR agonist compounds conjugated with immune-targeted antibodies (‘targeted cmpd’ 1-7). […] Targeted compounds 2, 4, 5, and 7 correspond to C7 carboxymethylated imidazoquinoline compounds coupled to immunostimulatory antibodies by cleavable linkers. Targeted compounds 3 and 6 correspond to C7 carboxylated imidazoquinoline compounds coupled to immunostimulatory antibodies by cleavable linkers. FIG. 7 provides dose-dependent IL12p40 (left panel) and IL1β (right panel) responses generated with non-targeted (i.e., coupled to an isotype antibody) and immune targeting antibody conjugated compounds, with ‘cmpd 9’ corresponding to a C7 carboxylated imidazoquinoline compound and ‘cmpo10’ corresponding to its C7 carboxymethyl analogue. FIG. 8 provides dose-dependent interleukin 6 (IL6, left panel) and TNFα (right panel) responses with ADCs comprising immune cell targeting antibodies coupled to either C7 carboxylated (cmpd 3, 8, 9) or C7 carboxymethylated (cmpd 4, 7, 10) imidazoquinoline compounds.
# In order to ascertain whether the difference in activity of the N1 vs. C4 linked conjugates seen in the Renca model was due to variable potency, a dose range experiment was performed. The N1 and C4 linked targeted (ADC) and non-targeted conjugates were administered in a wide dose range (0.001 to 10 μg/mL) to exogenously derived human immune cells. […] Supernatants were harvested and analyzed using a multiplex analyte kit (Luminex).
# [4] = system: primary human PBMCs; test: Cytokine induction in primary human PBMCs by small molecule TLR7/8 agonists (Luminex); format: cell-based; settings: free drug; for IFNα, IL1β, MIP1β, TNFα induction, C7 carboxylic acid vs parent C7 methyl ester: FIG. 3; for MIP1β and TNFα responses: FIG. 4, compared with Resiquimod or methyl ester counterpart
# Method: This example covers dose dependent human immune cell activation by small molecule TLR7/8 agonists. Primary human PBMCs were isolated from peripheral whole blood from human donors and were subjected to treatment with increasing concentrations of the agonists diluted in PBS. Cell culture supernatants were harvested 24 h after treatment and analyzed for induction of cytokines via multiplex ELISAs (Luminex).
# Several small molecule TLR7/8 agonists were assessed for their ability to activate human immune cells in a dose dependent manner. Primary human PBMCs were isolated from peripheral whole blood from human donors and were subjected to treatment with increasing concentrations of the agonists diluted in PBS. 24 h after treatment cell culture supernatants were harvested and analyzed for induction of cytokines via multiplex ELISAs (Luminex).
# [5] = system: Renca tumors; test: Renca kidney carcinoma model in Balb/c mice; format: in vivo, mouse; settings: for loss of potency, C4-linked vs N1-linked conjugate: dose increase of C4-linked conjugate needed to match 2 mg/kg N1-linked conjugate
# Method: The difference in anti-tumor activity of the S18a and S18b conjugates was also assessed in the Renca kidney model. In this model, mice bearing Renca tumors were treated q7dx3 when tumors reached ˜100 mm^3 as indicated, and followed for mean group tumor growth (FIG. 14, top) and survival (FIG. 14, bottom) over time.
# This example covers cancer treatment with EphA2 targeted TLR agonists. […] Balb/c mice were implanted with Renca tumor cells and when cells reached 100 mm^3 they were treated Q7dx3 treatments with 2.4 mg/kg of the indicated IDC, either non targeting isotype or an EphA2 targeting mAb.
# [6] = SEC analysis of ADC aggregation (high molecular weight species) in plasma; format: physicochemical; settings: ADC incubated with human or mouse plasma, FIG. 9
# Method: Method I: Size-exclusion chromatography (SEC) was performed with a Waters ACQUITY UPLC system and an Acquity UPLC Protein BEH SEC Column, (200 Å, 1.7 μm, 4.6×150 mm, PN: 186005225). The mobile phase used was 7.5% isopropanol in 92.5% aqueous (25 mM sodium phosphate, 350 mM NaCl, pH 6.8), v/v. Elution was performed isocratically at a flow rate of 0.4 mL/min at ambient temperature.
# To determine if any of these differences in activity potentially resulted from increases in aggregation as a subsequent result of changes in charge, SEC analysis was performed. ADCs containing either S18a (methyl ester) or S18b (carboxylic acid) were incubated with both human or mouse plasma and assessed for the formation of high molecular weight species (HMW) over time.
# [7] = system: plasma cytokines; test: Systemic cytokine response in CT26-tumor bearing mice; format: in vivo, mouse
# Method: In addition to analyzing this response in non-tumor bearing animals simply on systemic immune activation, the C4/N1-linked TLR7/8 drug antibody conjugates were also administered to CT26-tumor bearing animals to determine how the linkage site affects cytokine response and anti-tumor response. The results are shown in FIG. 17, which provides MIP1b (top panel) and TNFα (bottom panel) responses generated with N1-(cmpd 9) and C4-(cmpd 11) linked compounds conjugated to targeting and non-targeting antibodies, as well as for untreated cells. […] This was true for targeted and non-targeted control conjugates.
# [8] = system: plasma cytokines; test: Systemic plasma cytokine induction in non-tumor bearing Balb/c mice; format: in vivo, mouse
# [9] = tumor/immune targeted mAb, 2 mg/kg every 7 days, 3 doses, FIG. 38
smiles,measurement,setting,value
"CCCCc1nc2c(N)nc3cc(C(=O)O)ccc3c2n1Cc1ccc(CNC(=O)OCc2ccc(O[C@H]3O[C@H](CO)[C@@H](O)[C@H](O)[C@@H]3O)c(NC(=O)CCNC(=O)[C@H](CCCCNC(=O)CCOCCOCCOCCOCCOCCOCCOCCOCCOCCOCCOCCOC)NC(=O)CCN3C(=O)C=CC3=O)c2)cc1 [Compound 3, 4-amino-2-butyl-1-(4-(((((3-((S)-44-(3-(2,5-dioxo-2,5-dihydro-1H-pyrrol-1-yl)propanamido)-38,45-dioxo-2,5,8,11,14,17,20,23,26,29,32,35-dodecaoxa-39,46-diazanonatetracontan-49-amido)-4-(((2R,3S,4S,5S,6R)-3,4,5-trihydroxy-6-(hydroxymethyl)tetrahydro-2H-pyran-2-yl)oxy)benzyl)oxy)carbonyl)amino)methyl)benzyl)-1H-imidazo[4,5-c]quinoline-7-carboxylic acid]",tumor growth delay and survival,[1],slight increased survival advantage
same,tumor growth delay and survival,"[2]; targeted ADC, intraperitoneal, every 7 days, 3 doses",profound tumor growth delay
"CCCCc1nc2c(N)nc3cc(C(=O)O)ccc3c2n1Cc1ccc(CN)cc1 [S8b, 4-amino-1-(4-(aminomethyl)benzyl)-2-butyl-1H-imidazo[4,5-c]quinoline-7-carboxylic acid]",potency at activating immune cells vs methyl ester analogues,[3],"just as, if not more potent at activating immune cells than their methyl ester analogues"
same,"IFNα, IL1β, MIP1β, TNFα induction, C7 carboxylic acid vs parent C7 methyl ester",[4],markedly lower potency and activity than its corresponding parent methyl ester compound
same,MIP1β and TNFα responses,[4],lower activities than their methyl ester counterparts
CCCCc1nc2c(N)nc3cc(C(=O)O)ccc3c2n1CCN [S11b],potency at activating immune cells vs methyl ester analogues,[3],"just as, if not more potent at activating immune cells than their methyl ester analogues"
same,"IFNα, IL1β, MIP1β, TNFα induction, C7 carboxylic acid vs parent C7 methyl ester",[4],markedly lower potency and activity than its corresponding parent methyl ester compound
same,MIP1β and TNFα responses,[4],lower activities than their methyl ester counterparts
CCCCc1nc2c(N)nc3cc(C(=O)O)ccc3c2n1Cc1ccc(CN(C)C)cc1 [S18b],tumor growth delay and survival,[1],distinct tumor growth delay and overall survival benefit
same,tumor growth and survival,"[5]; ADC, q7dx3 from ~100 mm^3, FIG. 14",very good tumor growth delay and superior overall survival advantage
same,potency at activating immune cells vs methyl ester analogues,[3],"just as, if not more potent at activating immune cells than their methyl ester analogues"
same,aggregation (formation of high molecular weight species over time),[6],no significant difference in the amounts of aggregation
"CCCCc1nc2c(NC(=O)OCc3ccc(O[C@H]4O[C@H](CO)[C@@H](O)[C@H](O)[C@@H]4O)c(NC(=O)CCNC(=O)[C@H](CCCCNC(=O)CCOCCOCCOCCOCCOCCOCCOCCOCCOCCOCCOCCOC)NC(=O)CCN4C(=O)C=CC4=O)c3)nc3cc(C(=O)O)ccc3c2n1Cc1ccc(CN(C)C)cc1 [cmpd 11, 2-butyl-1-(4-((dimethylamino)methyl)benzyl)-4-((((3-((S)-44-(3-(2,5-dioxo-2,5-dihydro-1H-pyrrol-1-yl)propanamido)-38,45-dioxo-2,5,8,11,14,17,20,23,26,29,32,35-dodecaoxa-39,46-diazanonatetracontan-49-amido)-4-(((2R,3 S,4S,5 S,6R)-3,4,5-trihydroxy-6-(hydroxymethyl)tetrahydro-2H-pyran-2-yl)oxy)benzyl)oxy)carbonyl)amino)-1H-imidazo[4,5-c]quinoline-7-carboxylic acid]",tumor growth,"[5]; EphA2 targeting mAb or isotype, Q7dx3, 2-2.4 mg/kg",substantial tumor growth delayed noted for several of the animals
same,"loss of potency, C4-linked vs N1-linked conjugate",[5],~4 ×
same,"loss of potency, C4-linked vs N1-linked conjugate",[5]; listed as Compound 11,approximately 4 ×
same,animals reaching complete tumor cures,[2]; EphA2 targeting mAb,50%
same,anti-tumor activity and tumor growth delay,"[2]; EphA2 targeting mAb or isotype, FIGS. 35, 36",all animals benefiting from tumor growth delay
same,animals fully cured,[2]; [9],no cures
same,median tumor volume (tumor growth delay),[2]; [9],advantage with the TLR7/8 containing IDC vs the naked tumor/immune targeted mAb in terms of tumor growth delay
same,"systemic activation (majority of cytokines), C4 vs N1 linkage","[7]; targeted and non-targeted control conjugates, FIG. 17",reduced systemic activation
same,"TNFα and MIP1β, C4 vs N1 linkage",[7]; targeted antibody conjugate,equivalent for TNFα but showed benefit for MIP1β
same,"IL6 and TNFα levels, C4 vs N1 linkage","[8]; immune-targeted ADC, 2 mg/kg intraperitoneal",no changes in IL6 or TNFα levels
same,"reduction of systemic cytokine induction (MCP1, IP10, MIP1a, MIP1b, RANTES), C4 vs N1 linkage","[8]; immune-targeted ADC, 2 mg/kg intraperitoneal, plasma 3/6/24 h",4.8 -fold
same,"systemic cytokines (MIP1β, TNFα), C4 vs N1 linkage","[8]; non-targeting ADC, FIG. 16",greatly diminished systemic cytokines and non-specific uptake
